According to patent publication US6881728B1, “14-β, 17-α-hydroxymethylandrostane derivatives as androgens” (Akzo Nobel N.V., priority 1999, dated 2005):

biological target: T1, human androgen receptor (Homo sapiens, UniProt P10275); assay: androgenic activity rating (procedures described above; which one underlies the rating is not stated); design: key: +: androgenic activity found; ++: high androgenic activity; +++: excellent androgenic activity
T1 construct: host or cells: MCF-7 cytosol (endogenous) or CHO cells transfected with hAR
T1 sequence (P10275 1-920): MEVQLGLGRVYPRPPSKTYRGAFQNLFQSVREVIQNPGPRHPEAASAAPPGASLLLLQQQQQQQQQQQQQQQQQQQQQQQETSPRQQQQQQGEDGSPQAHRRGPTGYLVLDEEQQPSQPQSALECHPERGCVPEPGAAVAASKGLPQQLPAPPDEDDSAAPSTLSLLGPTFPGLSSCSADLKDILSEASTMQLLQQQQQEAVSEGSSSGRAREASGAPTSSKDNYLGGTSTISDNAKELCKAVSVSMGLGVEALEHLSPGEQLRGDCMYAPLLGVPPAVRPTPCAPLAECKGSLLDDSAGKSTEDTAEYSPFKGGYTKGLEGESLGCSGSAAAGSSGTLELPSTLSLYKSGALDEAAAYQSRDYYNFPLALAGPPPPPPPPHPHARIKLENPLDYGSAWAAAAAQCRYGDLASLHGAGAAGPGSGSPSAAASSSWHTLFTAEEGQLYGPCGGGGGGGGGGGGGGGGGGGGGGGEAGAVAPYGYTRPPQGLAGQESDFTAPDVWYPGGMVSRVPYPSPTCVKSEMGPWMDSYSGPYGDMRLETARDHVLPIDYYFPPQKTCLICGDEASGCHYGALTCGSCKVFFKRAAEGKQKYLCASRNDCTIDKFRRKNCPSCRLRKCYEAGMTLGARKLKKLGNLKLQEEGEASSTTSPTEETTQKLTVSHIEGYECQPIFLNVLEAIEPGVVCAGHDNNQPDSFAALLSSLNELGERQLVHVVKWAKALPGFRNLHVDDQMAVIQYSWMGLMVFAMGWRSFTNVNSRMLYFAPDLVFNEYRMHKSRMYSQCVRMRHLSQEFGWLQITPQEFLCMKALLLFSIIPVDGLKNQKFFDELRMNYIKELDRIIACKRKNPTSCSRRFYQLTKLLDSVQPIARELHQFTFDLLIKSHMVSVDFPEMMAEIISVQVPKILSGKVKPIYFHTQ
Protocol: Androgenic activity can be measured in various ways. Thus, the potency of androgens can be determined in vitro using the cytoplasmic androgen receptor from human breast tumor cells (MCF-7 cell line); see Bergink, E. W. et al, Comparison of the receptor binding properties of nandrolone and testosterone under in vitro and in vivo conditions, J. Steroid Biochem. 22, 831-836 (1985). It is also possible to use Chinese hamster ovary (CHO) cells transfected with the human androgen receptor (incubation time 16 h, temperature 4° C.) and compared with the affinity of 5α-dihydrotestosterone [according to the procedure described by Bergink, E. W. et al, J. Steroid Biochem. 12, 1563-1570 (1983)]. The transactivative androgen activity of the compounds of the invention can be measured, e.g. in Chinese hamster ovary cells (CHO) transfected with the human androgen receptor (hAR), in combination with a mouse mammary tumor virus (MMTV), and luciferase […] (incubation time 16 h, temperature 37° C.) and compared with the activity of 5α-dihydrotestosterone [according to the procedure described by Schoonen, W. G. E. J. et al, Analyt. Biochem. 261, 222-224 (1998)]. For the in vivo potency determination of androgens the classical Hershberger test can be used. In this test the androgenic (increase in prostate weight) and anabolic activities [increase of the musculus levator ani (MLA)] of a compound are tested in immature castrated rats after daily administration for 7 days; see Hershberger, L. G. et al, Myotrophic activity of 19-Nortestosterone and other steroids determined by modified levator ani muscle method, Proceedings of the society for experimental biology and medicine 83, 175-180 (1953). Additionally, the effect of an androgenic compound on LH suppression can be tested in mature castrated rats according to Kumar, N. et al, The biological activity of 7alpha-methyl-19-nortestosterone is not amplified in male reproductive tract as is that of testosterone, Endocrinology 130, 3677-3683 (1992).
A plurality of compounds according to the invention were tested for androgenic activity (the procedures for which have been described above) and rated in the Table below according to the following scheme: • + androgenic activity found; • ++ high androgenic activity; • +++ excellent androgenic activity; • nd no data available

Row | Compound | Rating (androgenic activity)
1 | CC(O)C1CCC2C3CCC4=CC(=O)CCC4C3CCC12C [Example 24a, (14β,17α,20S)-20-Hydroxy-19-norpregn-4-en-3-one] | ++
2 | CCCCCCCCCCC(=O)OC[C@@H]1CC[C@@H]2[C@H]3[C@H](CC[C@]12C)[C@H]1CCC(=O)C=C1C[C@H]3C [Example 33c, (7α,14β,17α)-7-Methyl-17-[[(1-oxoundecyl)oxy]methyl]estr-4-en-3-one] | +
3 | CC(O)C1C2CC2C2C3C(C)CC4=CC(=O)CCC4C3CCC12C [Example 20a, (7α,14β,15β,16β,17α,20S)-20-Hydroxy-7-methyl-15,16-methylene-19-norpregn-4-en-3-one] | ++
4 | C=CC(O)[C@@H]1CC[C@@H]2[C@H]3[C@H](CC[C@@]21C)[C@H]1CCC(=O)C=C1C[C@H]3C (stereo partly drawn) [Example 18a, [7α,14β,17α(S)]-17-(1-Hydroxy-2-propenyl)-7-methylestr-4-en-3-one] | +
5 | C#C[C@H](O)[C@@H]1CC[C@@H]2[C@H]3[C@H](CC[C@@]21C)[C@H]1CCC(=O)C=C1C[C@H]3C [Example 18c, [7α,14β,17α(R)]-17-(1-Hydroxy-2-propynyl)-7-methylestr-4-en-3-one] | +
6 | C[C@@H]1CC2=CC(=O)CC[C@@H]2[C@H]2CC[C@@]3(C)[C@H](C[C@@H](C)[C@H]3CO)[C@@H]21 [Example 8, (7α,14β,16α,17α)-17-(Hydroxymethyl)-7,16-dimethylestr-4-en-3-one] | +
7 | CC[C@@H]1CC2=CC(=O)CC[C@@H]2[C@H]2CC[C@]3(C)[C@H](CO)CC[C@@H]3[C@H]12 [Example 14, (7α,14β,17α)-7-Ethyl-17-(hydroxymethyl)estr-4-en-3-one] | +
8 | CC(O)C1CCC2C3CCC4=CC(=O)CCC4=C3CCC12C [Example 27b, (14β,17α,20R)-20-Hydroxy-19-norpregna-4,9-dien-3-one] | +
9 | C[C@@H]1CC2=C[C@@H](O)CC[C@@H]2[C@H]2CC[C@]3(C)[C@H](CO)CC[C@@H]3[C@@H]21 [Example 34, (3β,7α,14β,17α)-17-(Hydroxymethyl)-7-methylestr-4-en-3-ol] | ++
10 | CC(O)C1CCC2C3CCC4=CC(=O)CCC4C3CCC12C [Example 24b, (14β,17α,20R)-20-Hydroxy-19-norpregn-4-en-3-one] | +
11 | CC[C@H](O)[C@@H]1CC[C@@H]2[C@@H]3CCC4=CC(=O)CC[C@@H]4[C@H]3CC[C@@]21C [Example 25a] | ++
12 | C[C@@H]1CC2=CC(=O)CC[C@@H]2[C@H]2CC[C@]3(C)[C@H](CO)CC[C@@H]3[C@@H]21 [Example 4, (7α,14β,17α)-17-(Hydroxymethyl)-7-methylestr-4-en-3-one] | +++
13 | CC(O)C1CCC2C3CCC4=CC(=O)CCC4=C3CCC12C [Example 27a, (14β,17α,20S)-20-Hydroxy-19-norpregna-4,9-dien-3-one] | ++
14 | C[C@]12CC[C@@H]3C4=C(CC[C@H]3[C@H]1CC[C@H]2CO)CC(=O)CC4 [Example 2, (14β,17α)-17-(Hydroxymethyl)estr-5(10)-en-3-one] | ++
15 | C[C@@H]1CC2=CC(=O)CC[C@@H]2[C@H]2CC[C@@]3(C)[C@H](CC[C@]3(F)CO)[C@@H]21 [Example 12, (7α,14β,17α)-17-Fluoro-17-(hydroxymethyl)-7-methylestr-4-en-3-one] | +++
16 | CC(O)C1CCC2C3C(C)CC4=CC(=O)CCC4C3CCC12C [Example 16a, (7α,14β,17α,20S)-20-Hydroxy-7-methyl-19-norpregn-4-en-3-one] | ++

Row | Compound | Rating (androgenic activity)
17 | CCC1CC2(C)C(C(C)O)CCC2C2CCC3=CC(=O)CCC3C12 [Example 29a, (11β,14β,17α,20S)-11-Ethyl-20-hydroxy-19-norpregn-4-en-3-one] | +
18 | C#C[C@@H](O)[C@@H]1CC[C@@H]2[C@H]3[C@H](CC[C@@]21C)[C@H]1CCC(=O)C=C1C[C@H]3C [Example 18d, [7α,14β,17α(S)]-17-(1-Hydroxy-2-propynyl)-7-methylestr-4-en-3-one] | +
19 | C[C@@H]1CC2=CCCC[C@@H]2[C@H]2CC[C@]3(C)[C@H](CO)CC[C@@H]3[C@@H]21 [Example 37, (7α,14β,17α)-7-Methylestr4-ene-17-methanol] | +
20 | C[C@@H]1CC2=CC(=O)CC[C@@H]2[C@H]2CC[C@@]3(C)[C@H](C[C@H](C)[C@H]3CO)[C@@H]21 [Example 9, (7α,14β,16β,17α)-17-(Hydroxymethyl)-7,16-dimethylestr-4-en-3-one] | ++
21 | C[C@@H]1CC2=CC(=O)CC[C@@H]2[C@H]2CC[C@]3(C)[C@H](CO)C[C@@H](C)[C@@H]3[C@@H]21 [Example 7, (7α,14β,15β,17α)-17-(Hydroxymethyl)-7,15-dimethylestr-4-en-3-one] | +
22 | CCC[C@H](O)[C@@H]1CC[C@@H]2[C@@H]3CCC4=CC(=O)CC[C@@H]4[C@H]3CC[C@@]21C [Example 25c, (14β,17α,20S)-20-Hydroxy-19,21-dinorchol-4-en-3-one] | +
23 | CC(=O)OC[C@@H]1CC[C@@H]2[C@H]3[C@H](CC[C@]12C)[C@H]1CCC(=O)C=C1C[C@H]3C [Example 33a, (7α,14β,17α)-17-[(Acetyloxy)methyl]-7-methylestr-4-en-3-one] | +
24 | CC(O)C1C2CC2C2C3C(C)CC4=CC(=O)CCC4C3CCC12C [Example 20b, (7α,14β,15β,16β,17α,20R)-20-Hydroxy-7-methyl-15,16-methylene-19-norpregn-4-en-3-one] | +
25 | CC1CC2=CC(=O)CCC2C2CCC3(C)C(CCC3C(C)(C)O)C12 (stereo not drawn) [Example 19, (7α,14β,17α)-20-Hydroxy-7,20-dimethyl-19-norpregn-4-en-3-one] | +
26 | CCC(O)[C@@H]1CC[C@@H]2[C@@H]3CCC4=CC(=O)CC[C@@H]4[C@H]3CC[C@@]21C (stereo partly drawn) [Example 25b, [14β,17α(R)]-17-(1-Hydroxypropyl)estr-4-en-3-one] | +
27 | C[C@]12CC[C@H]3[C@@H](CCC4=CC(=O)CC[C@@]43C)[C@H]1CC[C@H]2CO [Example 22b, (14β,17α)-17-(Hydroxymethyl)androst-4-en-3-one] | +
28 | C[C@@H]1CC2=C/C(=N/O)CC[C@@H]2[C@H]2CC[C@]3(C)[C@H](CO)CC[C@@H]3[C@@H]21 [Example 36a, (3E,7α,14β,17α)-3-(Hydroxyimino)-7-methylestr-4-ene-17-methanol] | +
29 | C=CC1CC2(C)C(C(C)O)CCC2C2CCC3=CC(=O)CCC3=C12 [Example 30, (11β,14β,17α,20S)-11-Ethenyl-20-hydroxy-19-norpregna-4,9-dien-3-one] | +
30 | CCC12CCC3C4CCC(=O)C=C4CCC3C1CCC2C(C)O [Example 32a, (14β,17α,20S)-13-Ethyl-20-hydroxy-18,19-dinorpregn-4-en-3-one] | +
31 | C[C@@H]1C[C@@H](CO)[C@@]2(C)CC[C@H]3[C@@H](CCC4=CC(=O)CC[C@@H]43)[C@@H]12 [Example 23, (14β,15β,17α)-17-(Hydroxymethyl)-15-methylestr-4-en-3-one] | +
